In article PMC7178511, “Antimicrobial Activity and DNA/BSA Binding Affinity of Polynuclear Silver(I) Complexes with 1,2-Bis(4-pyridyl)ethane/ethene as Bridging Ligands” (Bioinorganic Chemistry and Applications, 2020):
Values after ≈ are worked out from the molar mass of the structure shown. Marks after values point to notes of the source that are not given here.

Tests used:
[1] = tested on: Pseudomonas aeruginosa PAO1; test: Broth microdilution MIC, P. aeruginosa; format: cell-based
Description: (§1) Minimal inhibitory concentration (MIC) values against Pseudomonas aeruginosa PA01, Staphylococcus aureus ATCC 43300, Salmonella enteritidis ATCC 13075, Salmonella pullorum ATCC 13036, Escherichia coli NCTC 9001, Listeria monocytogenes NCTC 11994, and Enterococcus faecalis ATCC 29212 were determined in Luria-Bertani broth (10.0 g/L tryptone, 10.0 g/L NaCl, 5.0 g/L yeast extract, pH 7.2) in accordance with the standard broth microdilution assay for bacteria that grow aerobically, as recommended by the CLSI (Clinical and Laboratory Standards Institute, Methods for Dilution Antimicrobial Susceptibility Tests for Bacteria That Grow Aerobically; Approved Standard—Tenth Edition M07-A10. CLSI). The highest tested concentration was 500 μg/mL, and the inocula were 1^·10^6 cfu/mL.

[2] = biological target: T1, bovine serum albumin (BSA) (Bos taurus, UniProt P02769); test: BSA tryptophan fluorescence quenching; format: binding; conditions: BSA 13.1 μM, Tris buffer pH 7.4
T1 construct: purchased Sigma-Aldrich
Description: The protein binding study was performed by tryptophan fluorescence quenching experiments using BSA (13.1 μM) in Tris buffer solution (pH 7.4). The quenching of the emission intensity of tryptophan residues of BSA at 352 nm was monitored using the increasing concentration of the complexes 1–3 (up to 464.9 μM). Fluorescence spectra were recorded in the range 280–500 nm with an excitation wavelength of 275 nm. The corresponding binding constants of the complexes (KA) and apparent binding sites (n) were calculated as it was previously explained.

[3] = tested on: Staphylococcus aureus ATCC 43300; test: Broth microdilution MIC, S. aureus; format: cell-based
Description: as §1

[4] = tested on: genomic DNA isolated from C. albicans ATCC 10231; test: DNA interaction assay using gel electrophoresis; format: binding, Candida albicans; conditions: 40, 100 and 400 μM complex, 2 h, 30°C, Tris buffer pH 8.5
Description: DNA interaction assay using gel electrophoresis has also been conducted according to the previously published procedure using high molecular weight (HMW) genomic DNA isolated from C. albicans ATCC 10231. Briefly, DNA (50 ng/μL final concentration) was incubated with 40, 100, and 400 μM final concentration of silver(I) complexes 1–3 in Tris buffer, pH 8.5 in 50 μL reaction volume. After 2 h incubation at 30°C, 10 μL aliquots were taken, mixed with loading dye, and loaded on agarose gel. Control contained an appropriate volume of DMSO. DNA samples were run, 500 ng per lane, on 0.8% agarose gel with ethidium bromide (EthBr) against O'GeneRuler™ 1 kb Plus DNA Ladder (Thermo Scientific™) at 60 V for 1 h. Gels were visualized and analyzed using the Gel Doc EZ system (Bio-Rad, Life Sciences, Hercules, USA), equipped with the Image Lab™ Software.

[5] = tested on: human lung fibroblast cell line MRC-5; test: MTT assay on a human fibroblast cell line; format: cell-based; conditions: MRC-5, MTT, 48 h
Description: (§2) Antiproliferative activity was tested by 3-(4,5-dimethylthiazol-2-yl)-2,5-diphenyltetrazolium bromide (MTT) assay on a human lung fibroblast cell line (MRC-5; ATCC collection). Pregrown (24 h) cell monolayers were incubated in the media containing the tested compounds at concentrations ranging from 5 to 500 μg/mL and the cell viability was measured after 48 h. RPMI 1640 medium supplemented with 100 μg/mL streptomycin, 100 U/mL penicillin, and 10% (v/v) FBS (all from Sigma, Munich, Germany) was used for the cultivation of MRC-5 cell line. Cells were maintained as a monolayer (1^·10^4 cells per well) in RPMI 1640 and grown in a humidified atmosphere of 95% air and 5% CO2 at 37°C. The extent of MTT reduction was measured spectrophotometrically at 540 nm using Tecan Infinite 200 Pro multiplate reader (Tecan Group Ltd, Männedorf, Switzerland), and the cell survival was expressed as a percentage of the control (untreated cells). Cytotoxicity was expressed as the concentration of the compound inhibiting cell growth by 50% (IC50).

C. krusei ATCC 6258 = test: Broth microdilution MIC, C. krusei; format: cell-based, Candida krusei
Description: (§3) Stock solutions of bpa, bpe, and silver(I) complexes 1–3 were prepared fresh in DMSO (50 mg/mL) and kept at 4°C prior to use. Susceptibility testing of Candida spp. (C. albicans ATCC 10231, C. krusei ATCC 6258, C. parapsilosis ATCC 22019, and C. glabrata ATCC 2001) was performed according to CLSI broth microdilution guidelines (Clinical and Laboratory Standards Institute, Reference Method for Broth Dilution Antifungal Susceptibility Testing of Yeasts—Third Edition: Approved Standard M27-A3; Clinical and Laboratory Standards Institute, Reference Method for Broth Dilution Antifungal Susceptibility Testing of Yeasts: Fourth Informational Supplement M27-S4), in RPMI 1640 medium (Roswell Park Memorial Institute medium) containing 2% glucose (w/v). The highest tested concentration was 500 μg/mL, and the inocula were 1^·\10^5 colony forming units (cfu)/mL.

[6] = tested on: Salmonella enteritidis ATCC 13075; test: Broth microdilution MIC, S. enteritidis; format: cell-based; conditions: 24 h
Description: as §1

[7] = tested on: Salmonella pullorum ATCC 13036; test: Broth microdilution MIC, S. pullorum; format: cell-based; conditions: 24 h
Description: as §1

C. albicans ATCC 10231 = test: Broth microdilution MIC, C. albicans; format: cell-based, Candida albicans
Description: as §3

C. glabrata ATCC 2001 = test: Broth microdilution MIC, C. glabrata; format: cell-based, Candida glabrata
Description: as §3

[8] = tested on: Enterococcus faecalis ATCC 29212; test: Broth microdilution MIC, E. faecalis; format: cell-based
Description: as §1

[9] = tested on: C. parapsilosis ATCC 22019; test: Broth microdilution MIC, C. parapsilosis; format: cell-based, Candida parapsilosis
Description: as §3

calf thymus DNA (ctDNA) = test: Competitive EthBr-DNA fluorescence binding experiment; conditions: Fluorescent titration, pH 7.4
Description: The competitive DNA-silver(I) complex binding experiments were carried out in the buffer (pH 7.4) by maintaining [DNA]/[EthBr] = 5, while increasing the concentration of the complexes 1–3. Each sample solution was scanned in the wavelength range 525–800 nm with an excitation wavelength of 520 nm. The Stern-Volmer constants (Ksv), which represent a measure of the binding propensity of the complexes to DNA, were calculated using the following equation [29]:(2) F0/F=1+Kqτ0complex=1+Ksvcomplex, where F0 and F are the fluorescence intensities in the absence and presence of the complexes, respectively. Kq stands for bimolecular quenching constant and τ0 (10^−8 s) is the lifetime of the fluorophore in the absence of the quencher. The binding constants (KA) and apparent binding sites (n) can be calculated by using the following equation [28]:(3) logF0−F/F=log KA+n logcomplex, where KA stands for the binding constant of the silver(I) complex with ctDNA and n stands for the apparent number of binding sites.

[10] = tested on: Escherichia coli NCTC 9001; test: Broth microdilution MIC, E. coli; format: cell-based
Description: as §1

[11] = tested on: C. albicans expressing red fluorescent protein; test: C. albicans filamentation study; format: cell-based, Candida albicans; conditions: MIC80 of complex, 6 h, 37°C, RPMI 1640 with 10% FBS
Description: The suspension of C. albicans expressing red fluorescent protein was prepared in RPMI 1640 medium with 10% (v/v) fetal bovine serum (FBS) to induce hyphae formation. The suspension was then treated with MIC80 concentrations of 1–3 at 37°C shaking. Cells treated with DMSO served as the control. After 6 h of incubation, the results were observed by a fluorescence microscope (Olympus BX51, Applied Imaging Corp., San Jose, CA, United States) under 20× magnification.

[12] = tested on: Listeria monocytogenes NCTC 11994; test: Broth microdilution MIC, L. monocytogenes; format: cell-based
Description: as §1

C. albicans = tested on: C. albicans; parameters: method as in PMID 30952084; conditions: at MIC doses; cited from earlier work
[13] = tested on: C. albicans infected zebrafish; parameters: method as in PMID 30952084; conditions: at MIC doses; cited from earlier work
[14] = MTT assay on a human fibroblast cell line; format: cell-based; conditions: human, MRC-5, MTT, read-out: IC50 (cytotoxic effect on MRC-5 cells)
Description: as §2

[15] = tested on: investigated bacterial strains; test: Broth microdilution MIC, panel of bacterial strains; format: cell-based
Description: as §1

[16] = P. aeruginosa PAO1, Luria-Bertani broth, 24 h, 37°C
[17] = S. aureus ATCC 43300, Luria-Bertani broth, 24 h, 37°C
[18] = C. krusei ATCC 6258, RPMI 1640 with 2% glucose
[19] = S. enteritidis ATCC 13075, Luria-Bertani broth, 37°C
[20] = S. pullorum ATCC 13036, Luria-Bertani broth, 37°C
[21] = C. albicans ATCC 10231, RPMI 1640 with 2% glucose
[22] = C. glabrata ATCC 2001, RPMI 1640 with 2% glucose
[23] = E. faecalis ATCC 29212, Luria-Bertani broth, 24 h, 37°C
[24] = C. parapsilosis ATCC 22019, RPMI 1640 with 2% glucose
[25] = E. coli NCTC 9001, Luria-Bertani broth, 24 h, 37°C
[26] = L. monocytogenes NCTC 11994, Luria-Bertani broth, 24 h, 37°C

T1 sequence (P02769 25-607): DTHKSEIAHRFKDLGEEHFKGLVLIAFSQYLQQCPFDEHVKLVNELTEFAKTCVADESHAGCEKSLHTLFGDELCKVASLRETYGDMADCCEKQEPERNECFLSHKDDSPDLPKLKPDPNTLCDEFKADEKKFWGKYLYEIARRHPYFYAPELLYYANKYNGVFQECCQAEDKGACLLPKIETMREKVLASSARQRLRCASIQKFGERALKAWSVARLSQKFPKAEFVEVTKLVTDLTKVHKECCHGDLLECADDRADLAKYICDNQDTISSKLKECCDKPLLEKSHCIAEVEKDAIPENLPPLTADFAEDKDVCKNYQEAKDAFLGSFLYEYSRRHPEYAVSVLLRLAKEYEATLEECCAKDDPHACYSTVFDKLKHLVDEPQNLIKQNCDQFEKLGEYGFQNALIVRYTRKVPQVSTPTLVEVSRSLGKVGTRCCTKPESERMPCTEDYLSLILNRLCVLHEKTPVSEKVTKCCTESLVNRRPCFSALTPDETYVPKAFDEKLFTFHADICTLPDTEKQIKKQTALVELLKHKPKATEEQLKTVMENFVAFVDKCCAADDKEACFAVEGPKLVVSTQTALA

| SMILES | MIC [1, 16] [µg/mL] | Tryptophan fluorescence quenching (emission decrease at 352 nm) [2] [%] | n (number of binding sites per albumin) [2] | MIC [3, 17] [µg/mL] | interaction with C. albicans genomic DNA (emission of EthBr-DNA system on gel) [4] | IC50 (cytotoxic effect on MRC-5 cells) [5] | MIC (C. krusei ATCC 6258; [18]) [µg/mL] | MIC [6, 19] [µg/mL] | MIC [7, 20] [µg/mL] | MIC (C. albicans ATCC 10231; [21]) [µg/mL] | MIC (C. glabrata ATCC 2001; [22]) [µg/mL] | MIC [8, 23] [µg/mL] | MIC [9, 24] [µg/mL] | Hypochromism (calf thymus DNA (ctDNA)) [%] | MIC [10, 25] | effect on C. albicans hyphae formation [11] | MIC [12, 26] [µg/mL] | effect on C. albicans filamentation (C. albicans) | outcome of infected zebrafish [13] | other results |
| --- | --- | --- | --- | --- | --- | --- | --- | --- | --- | --- | --- | --- | --- | --- | --- | --- | --- | --- | --- | --- |
| O.O=S(=O)([O-])C(F)(F)F.[Ag+].c1cc(CCc2ccncc2)ccn1.c1cc(CCc2ccncc2)ccn1 [Complex 2, {[Ag(bpa)2]CF3SO3^.H2O}n] | 200 | 76.10 | 1.10 | 200 | Slightly higher interaction | 30 µg/mL | 3.1 | 50 | 12.5 | 6.25 | 12.5 | 25 | 2.5 | 12.0 | 12.5 µg/mL | decreased number and length of hyphae | 50 | – | – | – |
| C(=C\c1ccncc1)/c1ccncc1.O=S(=O)([O-])C(F)(F)F.[Ag+] [Complex 3, {[Ag(bpe)]CF3SO3}n] | 25 | 81.13 | 1.30 | 100 | – | 40 µg/mL | 6.25 | 200 | 250 | 25 | 25 | 25 | 3.1 | 3.8 | 12.5 µg/mL | did not significantly affect the hyphae formation | 25 | – | – | K A (calf thymus DNA (ctDNA)): 59.16 M⁻¹ |
| O=[N+]([O-])[O-].[Ag+].c1cnc2ccc3ncccc3c2c1 [[Ag(NO3)(4,7-phen)]n] | – | – | – | – | – | – | – | – | – | – | – | – | – | – | – | – | – | totally prevented C. albicans filamentation | rescued the infected zebrafish of the lethal infection outcome | – |
| O=[N+]([O-])[O-].[Ag+].c1cc(CCc2ccncc2)ccn1 [Complex 1, {[Ag(bpa)]NO3}n] | 50 | 65.65 | 1.14 | 50 | Slightly higher interaction | 40^b μg/mL | 6.25 | 50 | 25 | 6.25 | 6.25 | 12.5 | 3.1 | 11.3 | 12.5^a μg/mL | did not significantly affect the hyphae formation | 50 | – | – | effect on C. albicans growth under filamentation conditions [11]: reduced the growth |
| O=C([O-])C(F)(F)F.[Ag+].c1cnc2ccc3ncccc3c2c1 [[Ag(CF3COO)(4,7-phen)]n] | – | – | – | – | – | – | – | – | – | – | – | – | – | – | – | – | – | totally prevented C. albicans filamentation | rescued the infected zebrafish of the lethal infection outcome | – |
| c1cc(CCc2ccncc2)ccn1 [bpa, 1,2-Bis(4-pyridyl)ethane] | – | – | – | – | – | – | – | – | – | – | – | – | – | – | – | – | – | – | – | MIC ([1]; Pseudomonas aeruginosa, PAO1, 24 h): > 500 µg/mL; MIC ([3]; Staphylococcus aureus, ATCC43300, 24 h): > 500 µg/mL; IC50 at 48 h [14]: 300 µg/mL (≈ 1630 µM); MIC (C. krusei ATCC 6258; Pichia kudriavzevii, ATCC6258): 125 µg/mL (≈ 678 µM); MIC ([6]; Salmonella enterica): > 500 µg/mL; MIC ([7]; Salmonella enterica): > 500 µg/mL; MIC (C. albicans ATCC 10231; Candida albicans, ATCC10231): 125 µg/mL (≈ 678 µM); MIC (C. glabrata ATCC 2001; Nakaseomyces glabratus, ATCC2001): > 500 µg/mL; MIC ([8]; Enterococcus faecalis, ATCC29212, 24 h): > 500 µg/mL; MIC / antibacterial activity [15]: not significant; MIC ([9]; Lodderomyces parapsilosis, ATCC22019): 250 µg/mL (≈ 1360 µM); MIC ([10]; Escherichia coli, NCTC9001, 24 h): > 500 µg/mL; MIC ([12]; Listeria monocytogenes, NCTC11994, 24 h): > 500 µg/mL |
